According to PubChem BioAssay AID256 (DTP/NCI, 2004):
Inconclusive results and toxic doses are left out.

System: CD2F1 mice, L1210 leukemia ip, survival T/C
Assay: NCI In Vivo Anticancer Drug Screen. Data for tumor model L1210 Leukemia (intraperitoneal) in CD2F1 (CDF1) mice
Details: endpoint: mean survival time, higher = longer survival
Procedure, shortened: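 Mice carrying a transplanted tumor received test compound or vehicle alone. The value is the measurement in the treated group divided by that in the vehicle-treated control group.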

[1] = dose: 100.0 mg/kg/injection, schedule: Q01DX009 (ip), vehicle: saline sonified
[2] = dose: 100.0 mg/kg/injection, schedule: Q04DX003 (ip), vehicle: saline with Tween-80
[3] = dose: 200.0 mg/kg/injection, schedule: Q01DX009 (ip), vehicle: saline sonified
[4] = dose: 200.0 mg/kg/injection, schedule: Q04DX003 (ip), vehicle: saline with Tween-80
[5] = dose: 400.0 mg/kg/injection, schedule: Q04DX003 (ip), vehicle: saline with Tween-80
[6] = dose: 100.0 mg/kg/injection, schedule: Q01DX009 (ip), vehicle: saline with Tween-80
[7] = dose: 200.0 mg/kg/injection, schedule: Q01DX009 (ip), vehicle: saline with Tween-80
[8] = dose: 400.0 mg/kg/injection, schedule: Q01DX009 (ip), vehicle: saline with Tween-80
[9] = dose: 100.0 mg/kg/injection, schedule: Q04DX002 (ip), vehicle: saline with Tween-80
[10] = dose: 200.0 mg/kg/injection, schedule: Q04DX002 (ip), vehicle: saline with Tween-80
[11] = dose: 50.0 mg/kg/injection, schedule: Q01DX009 (ip), vehicle: saline with Tween-80

**Q.** What does the source list for `O=C1c2ccccc2C(=O)c2c(NCCCCCO)ccc(NCCCCCO)c21`?
**A.** T/C (dose: 16.0 mg/kg/injection, schedule: Q01DX009 (ip), vehicle: Klucel (hydroxypropylcellulose) (HPC)): 102 % of control; T/C (dose: 32.0 mg/kg/injection, schedule: Q01DX009 (ip), vehicle: Klucel (hydroxypropylcellulose) (HPC)): 93 % of control; T/C (dose: 64.0 mg/kg/injection, schedule: Q01DX009 (ip), vehicle: Klucel (hydroxypropylcellulose) (HPC)): 96 % of control; T/C (dose: 128.0 mg/kg/injection, schedule: Q01DX009 (ip), vehicle: Klucel (hydroxypropylcellulose) (HPC)): 96 % of control; T/C (dose: 256.0 mg/kg/injection, schedule: Q01DX009 (ip), vehicle: Klucel (hydroxypropylcellulose) (HPC)): 104 % of control

**Q.** How did the T/C (dose: 12.5 mg/kg/injection, schedule: Q04DX003 (ip), vehicle: Klucel (hydroxypropylcellulose) (HPC)) turn out when `N#CC(=C=[N-])[n+]1ccccc1` was run?
**A.** 98 % of control

**Q.** What about the T/C (dose: 25.0 mg/kg/injection, schedule: Q04DX003 (ip), vehicle: Klucel (hydroxypropylcellulose) (HPC)) of the same compound?
**A.** 100 % of control

**Q.** What does the source list for `c1ccc2nc(NCCSSCCNc3cnc4ccccc4n3)cnc2c1`?
**A.** T/C [1]: 92 % of control; T/C [2]: 94 % of control; T/C [3]: 93 % of control; T/C [4]: 101 % of control; T/C (dose: 400.0 mg/kg/injection, schedule: Q01DX009 (ip), vehicle: saline sonified): 87 % of control; T/C [5]: 96 % of control

**Q.** With `O=C(Nc1ccc(F)c(Cl)c1)Oc1ccc(F)cc1Cl` as the compound, how does the T/C [6] read?
**A.** 103 % of control

**Q.** What about the T/C [7] of the same compound?
**A.** 104 % of control

**Q.** And the T/C [8]?
**A.** 92 % of control

**Q.** Which results are given for `CC(C)(C)C1CC[N-]CC1.CC(C)(C)C1CC[N-]CC1.O=[N+]([O-])O.O=[N+]([O-])O.[Pt+2]`?
**A.** T/C (dose: 50.0 mg/kg/injection, schedule: Q04DX002 (ip), vehicle: saline with Tween-80): 98 % of control; T/C [9]: 98 % of control; T/C [10]: 95 % of control

**Q.** What does the source list for `Nc1cc2nc3ccccc3sc-2cc1=O`?
**A.** T/C [11]: 102 % of control; T/C [6]: 102 % of control; T/C [7]: 102 % of control; T/C [8]: 89 % of control

**Q.** Which T/C (dose: 25.0 mg/kg/injection, schedule: Q01DX009 (ip), vehicle: saline with Tween-80) does the source give for `O=[N+]([O-])c1cccc(N=Nn2cccc2)c1` here?
**A.** 86 % of control

**Q.** And the T/C [11]?
**A.** 106 % of control

**Q.** And the T/C (dose: 100.0 mg/kg/injection, schedule: Q01DX001 (ip), vehicle: saline with Tween-80)?
**A.** 98 % of control

**Q.** What about the T/C [6] of the same compound?
**A.** 102 % of control

**Q.** For `CCC(C)CC(O)CC1=CCCCC1` (centres undefined), which T/C [2] is on record?
**A.** 91 % of control

**Q.** And the T/C [4]?
**A.** 95 % of control

**Q.** What about the T/C [5] of the same compound?
**A.** 106 % of control

**Q.** For `Cc1cc(-c2nnc(-c3ccc(O)c(C)c3)nn2)ccc1O`, which T/C [2] is on record?
**A.** 97 % of control

**Q.** What about the T/C [4] of the same compound?
**A.** 89 % of control

**Q.** And the T/C [5]?
**A.** 92 % of control

**Q.** Which T/C (dose: 50.0 mg/kg/injection, schedule: Q01DX009 (ip), vehicle: saline sonified) does the source give for `C1CN(CCSSCCN2CCOCC2)CCO1` here?
**A.** 100 % of control

**Q.** And the T/C [1]?
**A.** 100 % of control

**Q.** And the T/C [2]?
**A.** 104 % of control

**Q.** And the T/C [3]?
**A.** 103 % of control

**Q.** What about the T/C [4] of the same compound?
**A.** 104 % of control

**Q.** Which results are given for `COc1ccc(NC(=O)Nc2ccccc2C(F)(F)F)cc1`?
**A.** T/C [2]: 98 % of control; T/C [4]: 96 % of control; T/C [5]: 90 % of control

**Q.** For `Cc1cc(S(=O)(=O)F)cc(Cl)c1SC(=O)N(C)C`, which T/C [9] is on record?
**A.** 91 % of control

**Q.** What about the T/C [10] of the same compound?
**A.** 95 % of control

**Q.** And the T/C (dose: 400.0 mg/kg/injection, schedule: Q04DX002 (ip), vehicle: saline with Tween-80)?
**A.** 91 % of control

**Q.** Which T/C (dose: 16.75 mg/kg/injection, schedule: Q04DX003 (ip), vehicle: water) does the source give for `Cc1c2ccncc2c(C)c2c1[nH]c1ccc(O)cc12` here?
**A.** 116 % of control

**Q.** And the T/C (dose: 50.0 mg/kg/injection, schedule: Q04DX003 (ip), vehicle: other)?
**A.** 166 % of control

**Q.** What about the T/C (dose: 75.0 mg/kg/injection, schedule: Q04DX003 (ip), vehicle: water) of the same compound?
**A.** 111 % of control

**Q.** And the T/C (dose: 100.0 mg/kg/injection, schedule: Q04DX003 (ip), vehicle: other)?
**A.** 102 % of control

**Q.** What about the T/C (dose: 100.0 mg/kg/injection, schedule: Q04DX003 (ip), vehicle: water) of the same compound?
**A.** 94 % of control
